Reference: patent US8883841B2, “Oncogenic ras-specific cytotoxic compound and methods of use thereof” (The Board of Regents of the University of Texas System, priority 2005, dated 2014)
Where two headings read alike, the source gives them in different places.

Columns and labels:
Icmt−/− MEF = assay: Icmt-dependent growth inhibition, Icmt−/− MEF; assay type: cell-based, mouse; details: up to 100 μM
Excerpt: Oncrasin and Oncrasin Analogs. Chemically, Oncrasin-1 has the same core structure as indole-3-carbinol, a naturally occurring constituent of many plant foods that has been tested for the prevention and treatment of cancer (Brignall, 2001; Kelloff et al., 1996; Chinni et al., 2001). Oncrasin-1 also has structural similarity to sulindac (Taylor et al., 2000; Sun et al., 2002) and lonidamine (Ravagnan et al., 1999; Papaldo et al., 2003), both of which have been evaluated preclinically and clinically for treatment of cancers. […] Oncrasin compounds also bear a indole core structure as the small-molecule inhibitor of isoprenylcysteine carboxylmethyltransferase (Icmt), 2-[5-(3-methylphenyl)-1-octyl-1H-indol-3-yl]acetamide (cysmethynil), which also induces antitumor activity in Ras gene mutant cancer cells (Winter-Vann et al., 2005). […] Both wild-type MEF and Icmt−/− MEF (Bergo et al., 2004) (kindly provided by Dr. S G Young at the University of California, San Francisco) were resistant to Oncrasin-1.

[1] = system: Bax, Bik, Bcl-2, Bcl-XL, Mst1, B-Raf, PKCzeta and PKCiota; assay: Western blot analysis of apoptosis/Ras signaling proteins; assay type: cell-based, human; details: T29, T29Kt1 and H460 cells, 12 h
Method: Ras Signaling Pathway and Molecular Mechanisms of Oncrasin-induced apoptosis. To investigate molecular mechanisms of apoptosis induction by Oncrasin compounds, levels several proteins that are involved in apoptosis and/or involved in Ras signaling pathways were determined, including Bax, Bik, Bc12, Bcl-XL, Raf-1, B-Raf, Akt, Mst1 and atypical protein kinase C (aPKC) zeta and PKCiota. To study which molecules are affected by Oncrasin treatment, T29, T29Kt1 and H460 cells were treated with Oncrasin-1 at an optimal concentration, around IC60 to IC80 for T29Kt1 and H460 cells. Cell lysates were collected 12 h after the treatment and subjected to Western blot analysis.

PKCiota = assay: Immunohistochemical staining, subcellular localization of PKCiota; assay type: cell-based, human
Method: Effects on subcellular localization of PKCiota. […] To further investigate molecular mechanisms of Oncrasin action the inventors studied the subcellular localization of several molecules involved in Ras-signaling pathway because the functions of Ras and other proteins are directly related to their subcellular localizations. For this purpose, T29Kt1 or H460 cells were seeded on cover glass slides and treated with DMSO or Oncrasin-1 for 12 h. Cells were then fixed with paraformaldehyde, permeabilized with Triton X-100 and stained with various antibodies for immunohistochemical examination. […] Nevertheless, substantial subcellular localization change was detected for PKCiota after Oncrasin-1 treatment (FIG. 6). In both H460 and T29Kt1 cells, both PKCiota and PKCzeta were diffusely distributed in cells with high concentration on cell membrane in nucleus, consisting with previous reports that aPKC contains both nuclear localization signal (NLS) and nuclear export signal (NES), and can shuttle between cytoplasm and nucleus, which was regulated by intramolecular conformational changes, phosphorylation or by treatment with growth factors (Perander et al., 2001; White et al., 2002; Neri et al., 1999). […] Such aggregation of PKCiota was not observed in Oncrasin-resistant T29 and H1299 cells. The inventors then tested whether PKCiota aggregation in the nucleus can be induced by other chemotherapeutic agents such as 5-fluorouracil (5-FU) and paclitaxol.

Rad51 = assay: Antibody staining, subcellular localization of Rad51; assay type: cell-based, human; details: T29Kt1 cells
Excerpt: Effects on RNA spliceosome. To investigate the nature of this PKCiota aggregates in the nucleus, the effect of Oncrasin-1 on SC35, a protein required for RNA splicing and assembly of spliceosome (Fu et al., 1992; Vellard et al., 1992), and on Rad51, a homologous DNA recombinase that involves in DNA repair (Benson et al., 1994; Baumann et al., 1996) were studied. […] and DNA repairing are the two important functions executed in the nucleus. In untreated or DMSO-treated cells, SC35 was localized in nucleus as speckles, either diffusely distributed or concentrated as granule clusters (Mistele et al., 1997), whereas Rad51 was more uniformly distributed inside the nucleus. […] This aggregation of SC35 was not observed in Oncrasin resistant T29 cells upon the treatment with Oncrasin-1. […] The effects of Oncrasin on another spliceosome protein, alternative splicing factor/splicing factor 2 (ASF/SF2), was studied (Krainer et al., 1991). […] In the resistant T29 cells, however, such an aggregation is not observed (FIG. 8C).

[2] = system: phosphorylated RNA polymerase II and SR proteins; assay: Western blot for phosphorylated RNA polymerase II and SR proteins; assay type: cell-based, human; details: 10 μM (T29Kt1) or 1 μM (H460), 12 h
Method: (§1) FIGS. 16A and 16B Effect on RNA processing machinary. (FIG. 16A) T29, T29Kt1, and H460 cells were treated with 10 μM Oncrasin-1 (T29 and T29Kt1) or 1 μM Oncrasin-1 (H460). Twelve hours later, cells were harvested for Western blot analysis for phosphorylation of RNA polymerase II and SR proteins. Cells treated with DMSO were used as control (C). (T) cells treated with Oncrasin-1. Arrows indicate reduced phosphorylation of the polymerase II (pPolII) and SR proteins (pSR) (FIG. 16B) In vitro transcription assay with HeLa cell nuclear extracts (Promoega). The assay was performed following manufacturers instructions. The concentrations used are indicated on the top of the panel. DRB was used as positive control for transcription inhibition.
(§2) To further test the role of RNA transcription and splicing in Oncrasin-mediated antitumor activity the phosphorylation of the largest subunit of RNA polymerase II and splicing factors were analyzed. T29, T29Kt1 and H460 cells were treated with Oncrasin-1 at an optimal concentration, around IC60 to IC80 for T29Kt1 and H460 cells. Cell lysates were collected 12 h after the treatment and subjected to Western blot analysis with antibodies specific for phosphorylated RNA polymerase If (H5, Covance Research Products, Inc., Berkeley, Calif.) and SR proteins (1H4, Zymed, obtained from Invitrogen, Carlsbad, Calif.).

[3] = system: RNA transcription (HeLa cell nuclear extracts); assay: In vitro transcription assay with HeLa nuclear extracts; assay type: biochemical
Method: as §1, §2

Compound: O=Cc1cn(Cc2ccc(Cl)cc2)c2ccccc12 [Oncrasin K001, 1H-Indole-3-carboxaldehyde, 1-[(4-chlorophenyl)methyl]-(9CI)]
- growth inhibition, Icmt−/− MEF (Icmt−/− MEF): resistant
- levels of Bax, Bik, Bcl-2, Bcl-XL, Mst1, B-Raf, PKCzeta and PKCiota [1]: did not result in noticeable changes
- PKCiota aggregation in the nucleus, H460 cells (PKCiota; 12 h): aggregation of PKCiota into large foci in nucleus
- PKCiota aggregation in the nucleus, T29Kt1 cells (PKCiota; 12 h, comparators at doses giving similar cell killing): aggregation of PKCiota into large foci in nucleus
- PKCiota aggregation, T29 and H1299 cells (PKCiota; Oncrasin-resistant cells): not observed
- effect on Rad51 (Rad51): no obvious effect
- phosphorylated RNA polymerase II and certain SR proteins [2]: dramatic suppression
- in vitro RNA transcription [3]: does not inhibit in vitro RNA transcription directly
- toxicity to T29 cells (T29 cells; at 33 μM (the highest concentration tested)): not toxic
- toxicity to T29 cells (T29 cells; at any of the doses tested (dose response)): not toxic
- cytotoxicity in T29 cells (T29 cells; up to 100 μM, the highest concentration tested): no detectable cytotoxicity
